Test system: serum uric acid
Assay: Phase 2 clinical trial (NCT03934099): serum uric acid concentration in gout patients
Format: in vivo, human
Conditions: for average maximum degree of reduction in serum uric acid: FIG. 3; for patients with serum uric acid concentration <6 mg/dL: gout patients, with colchicine 0.6 mg; for average serum uric acid concentration: within 2 weeks after starting administration
Procedure: A phase 2 clinical trial was conducted to analyze the dosage, TEAEs, and the like when the compound of Formula 1 (1-(3-cyano-1-isopropyl-indol-5-yl)pyrazol-4-carboxylic acid; compound of Example 1) is administered to a gout patient group.
• 1. Written informed consent (signed and dated) provided voluntarily prior to the start of the study. • 2. Male or female aged from 18 to 75 • 3. History or experience of hyperuricemia and gout in accordance with the criteria of the American College of Rheumatology. • 4. Self-reported history of 2 or more gout flare within 12 months prior to screening visit (Visit 1). • 5. Serum uric acid (sUA) levels at Visit 1 of 6.0 mg/dL or more in subjects who were receiving urate lower therapy (ULT) with allopurinol, febuxostat, probenecid, or lesinurad; and sUA levels at Visit 1 of 8.0 mg/dL or more and 12.0 mg/dL or less in subjects who had no history of receiving the ULT or were not receiving the ULT at visit 1. • 6. sUA levels of 8.0 mg/dL or more and 12.0 mg/dL or less at Visit 3. • 7. Body mass index of 42 kg/m^2 or less at screening visit (Visit 1). • 8. Estimated glomerular filtration rate (eGFR) of 60 mL/min/1.73 m^2 or more at screening visit (Visit 1). • 9. Subjects of childbearing potential with a negative pregnancy test result at screening visit (Visit 1). Subjects (female subjects of childbearing potential and male subjects with partners of childbearing potential) consented to use adequate methods of contraception to avoid pregnancy during the study period. • 10. Able to understand the study procedure and relevant risk, and willing to comply with the visit/protocol schedule.
• 1. Presence of secondary hyperuricemia caused by myeloproliferative disorder, organ transplantation, or the like. • 2. Experience of any active acute gout flare within 3 weeks prior to screening visit (Visit 1). • 3. Aspartate aminotransferase or alanine aminotransferase level exceeds 2 times upper limit of normal (ULN) at screening visit (Visit 1). • 4. Creatine kinase level exceeds 2.5 times ULN at screening visit (Visit 1). • 5. Presence of previous hypersensitivity to colchicine. • 6. Patients who have ever prescribed pegloticase within 3 months prior to screening visit (Visit 1). • 7. If a stable dose of drugs (losartan, fibrate, thiazide diuretics, loop diuretics, and acetylsalicylic acid) known to affect sUA levels has not been administered during the past 6 weeks prior to screening visit (Visit 1), acetylsalicylic acid is not allowed to use 325 mg/day or more. • 8. Patients who have ever received systemic corticosteroids for 10 or more consecutive days within 1 month prior to screening visit (Visit 1). • 9. Presence of need or potential availability of systemic immunosuppressive drugs or immunomodulatory therapies (e.g., azathioprine, 6-mercaptopurine, and cyclosporine) • 10. Patients who have received high or moderate doses of cytochrome P450 3A4 inhibitors or P-glycoprotein inhibitors within 14 days prior to screening visit (Visit 1). • 11. History of xanthinuria. • 12. History of rheumatoid arthritis. • 13. Presence of active peptic ulcer disease requiring treatment. • 14. Presence of unstable angina, New York Heart Association class III or IV heart failure, myocardial infarction, stroke, deep vein thrombosis, percutaneous coronary intervention (with or without stent), or coronary artery bypass graft within the past 12 months prior to screening visit (Visit 1); current administration of anticoagulants; or the presence of clinically significant electrocardiogram abnormalities in the investigator's opinion at screening visit (Visit 1). • 15. Presence of uncontrolled hypertension (systolic blood pressure>160 mmHg or diastolic blood pressure>95 mmHg) at screening visit (Visit 1). • 16. History of myositis/myopathy, rhabdomyolysis, Stevens-Johnson syndrome, or toxic epidermal necrolysis. • 17. […]

[1] = 200 mg/day oral, 12 weeks, listed as 1-(3-cyano-1-isopropyl-indol-5-yl)pyrazol-4-carboxylic acid
[2] = mild renal function impairment (eGFR 60-<90), 50 mg, 12 weeks
[3] = mild renal function impairment (eGFR 60-<90), 100 mg, 12 weeks
[4] = mild renal function impairment (eGFR 60-<90), 200 mg, 12 weeks
[5] = moderate renal function impairment (eGFR 30-<60), at each dose (50, 100, 200 mg), 12 weeks
[6] = normal renal function (eGFR>=90), 50 mg, 12 weeks
[7] = normal renal function (eGFR>=90), 100 mg, 12 weeks
[8] = normal renal function (eGFR>=90), 200 mg, 12 weeks

CC(C)n1cc(C#N)c2cc(-n3cc(C(=O)O)cn3)ccc21 [Example 1, 1-(3-cyano-1-isopropyl-indol-5-yl)pyrazol-4-carboxylic acid]
average maximum degree of reduction in serum uric acid (50 mg): 46.7%
patients with serum uric acid concentration <4 mg/dL (50 mg/day oral, 12 weeks): 18% (6/34 people)
patients with serum uric acid concentration <6 mg/dL (50 mg/day oral, 12 weeks): 59%
average serum uric acid concentration (50 mg/day): 5.5 mg/dL
average maximum degree of reduction in serum uric acid (100 mg): 50.6%
patients with serum uric acid concentration <4 mg/dL (100 mg/day oral, 12 weeks): 29% (11/38 people)
patients with serum uric acid concentration <6 mg/dL (100 mg/day oral, 12 weeks): 63%
average serum uric acid concentration (100 mg/day): 4.9 mg/dL
average maximum degree of reduction in serum uric acid (200 mg): 66.8%
patients with serum uric acid concentration <4 mg/dL (200 mg/day oral, 12 weeks): 54% (20/37 people)
patients with serum uric acid concentration <6 mg/dL (200 mg/day oral, 12 weeks): 78%
patients with serum uric acid concentration <4 mg/dL [1]: 54%
patients with serum uric acid concentration <5 mg/dL [1]: 62%
average serum uric acid concentration (200 mg/day): 3.8 mg/dL
serum uric acid concentration kept within the normal range during the dosing period (doses of 50 mg, 100 mg and 200 mg, from week 2, FIG. 2): < 6.0 mg/dL
patients adjusted to serum uric acid <5.0 mg/dL [2]: 33%
patients adjusted to serum uric acid <6.0 mg/dL [2]: 53%
patients adjusted to serum uric acid <5.0 mg/dL [3]: 44%
patients adjusted to serum uric acid <6.0 mg/dL [3]: 67%
patients adjusted to serum uric acid <5.0 mg/dL [4]: 55%
patients adjusted to serum uric acid <6.0 mg/dL [4]: 77%
patients adjusted to serum uric acid <5.0 mg/dL [5]: ≥ 50%
patients adjusted to serum uric acid <6.0 mg/dL [5]: ≥ 50%
patients adjusted to serum uric acid <5.0 mg/dL [6]: 53%
patients adjusted to serum uric acid <6.0 mg/dL [6]: 59%
patients adjusted to serum uric acid <5.0 mg/dL [7]: 43%
patients adjusted to serum uric acid <6.0 mg/dL [7]: 57%
patients adjusted to serum uric acid <5.0 mg/dL [8]: 71%
patients adjusted to serum uric acid <6.0 mg/dL [8]: 79%

From US20240415814A1, “PHARMACEUTICAL COMPOSITION COMPRISING 1-(3-CYANO-1-ISOPROPYL-INDOL-5-YL)PYRAZOLE-4-CARBOXYLIC ACID” (LG CHEM, LTD., priority 2021, published 2024)
